Bounds are passed on as bounds.

The first series relates to PLC5 cells. Description: MTT assay for cell growth inhibition in PLC5 cells.
Details: not given
Type of series: cell-based. As to the method:
These compounds were analyzed by MTT assay for cell growth inhibition in the PLC5 cells.
Next, we changed the pyridine to a quinoline ring and amide linker to generate compounds 12-25. These compounds were also analyzed by MTT assay for cell growth inhibition in the PLC5 cells.
Usually IC50 stands for the concentration that inhibits the measured activity by half. A low value points to inhibition by little substance. Turning to `CNC(=O)c1cc(Oc2ccc(NS(=O)(=O)c3ccccc3)cc2)ccn1` [Compound 2, N-Methyl-4-(4-(phenylsulfonamido)phenoxy)picolinamide], the IC50 is greater than 40 µM.

In the case of `CNC(=O)c1cc(Oc2ccc(NS(=O)(=O)c3ccc([N+](=O)[O-])cc3)cc2)ccn1` [Compound 3, N-Methyl-4-(4-(4-nitrophenylsulfonamido)phenoxy)picolinamide], the IC50 was greater than 40 µM.

`CNC(=O)c1cc(Oc2ccc(NS(=O)(=O)c3ccc(F)cc3)cc2)ccn1` [Compound 4, 4-(4-(4-Fluorophenylsulfonamido)phenoxy)-N-methylpicolinamide] showed an IC50 greater than 40 µM.

`CNC(=O)c1cc(Oc2ccc(NS(=O)(=O)c3ccc(C(C)(C)C)cc3)cc2)ccn1` [Compound 5, 4-(4-(4-tert-Butylphenylsulfonamido)phenoxy)-N-methylpicolinamide] had an IC50 greater than 40 µM.

Regarding `CNC(=O)c1cc(Oc2ccc(NS(=O)(=O)c3ccc4ccccc4c3)cc2)ccn1` [Compound 6, N-Methyl-4-(4-(naphthalene-2-sulfonamido)phenoxy)picolinamide], the IC50 is greater than 40 µM.

Compound `CNC(=O)c1cc(Oc2ccc(NS(=O)(=O)c3ccc(C(F)(F)F)cc3Br)cc2)ccn1` [Compound 7, 4-(4-(2-Bromo-4-(trifluoromethyl)phenylsulfonamido)phenoxy)-N-methylpicolinamide] showed an IC50 greater than 40 µM.

For the compound `CNC(=O)c1cc(Oc2ccc(NS(=O)(=O)c3ccccc3[N+](=O)[O-])cc2)ccn1` [Compound 8, N-Methyl-4-(4-(2-nitrophenylsulfonamido)phenoxy)picolinamide], the IC50 was greater than 40 µM.

In turn, `CNC(=O)c1cc(Oc2ccc(NC(=O)c3cc(C(F)(F)F)cc(C(F)(F)F)c3)cc2)ccn1` [Compound 9, 4-(4-(3,5-Bis(trifluoromethyl)benzamido)phenoxy)-N-methylpicolinamide] showed an IC50 greater than 40 µM.

`CNC(=O)c1cc(Oc2ccc(NC(=O)c3cc(F)ccc3C(F)(F)F)cc2)ccn1` [Compound 10, 4-(4-(5-Fluoro-2-(trifluoromethyl)benzamido)phenoxy)-N-methylpicolinamide] had an IC50 greater than 40 µM.

In turn, `CNC(=O)c1cc(Oc2ccc(NC(=O)c3ccc(C(F)(F)F)cc3)cc2)ccn1` [Compound 11, N-Methyl-4-(4-(4-(trifluoromethyl)benzamido)phenoxy)picolinamide] gave an IC50 greater than 40 µM.

In turn, `O=[N+]([O-])c1cc(C(F)(F)F)ccc1S(=O)(=O)Nc1ccc(Oc2ccnc3ccccc23)cc1` [Compound 12, 2-Nitro-N-(4-(quinolin-4-yloxy)phenyl)-4-(trifluoromethyl)benzenesulfonamide] yielded an IC50 greater than 40 µM.

With `O=[N+]([O-])c1cc(C(F)(F)F)ccc1S(=O)(=O)Nc1ccc(Oc2ccnc3c([N+](=O)[O-])cccc23)cc1` [Compound 13, 2-Nitro-N-(4-(8-nitroquinolin-4-yloxy)phenyl)-4-(trifluoromethyl)benzenesulfonamide], the IC50 is greater than 40 µM.

In the case of `O=S(=O)(Nc1ccc(Oc2ccnc3ccccc23)cc1)c1ccc(C(F)(F)F)cc1Br` [Compound 14, 2-Bromo-N-(4-(quinolin-4-yloxy)phenyl)-4-(trifluoromethyl)benzenesulfonamide], the IC50 is greater than 40 µM.

`O=[N+]([O-])c1cccc2c(Oc3ccc(NS(=O)(=O)c4ccc(C(F)(F)F)cc4Br)cc3)ccnc12` [Compound 15, 2-Bromo-N-(4-(8-nitroquinolin-4-yloxy)phenyl)-4-(trifluoromethyl)benzenesulfonamide] showed an IC50 greater than 40 µM.

In turn, `O=C(Nc1ccc(Oc2ccnc3ccccc23)cc1)c1cc(C(F)(F)F)cc(C(F)(F)F)c1` [Compound 16, N-(4-(Quinolin-4-yloxy)phenyl)-3,5-bis(trifluoromethyl)benzamide] displayed an IC50 of 16 µM.

Regarding `O=C(Nc1ccc(Oc2ccnc3c([N+](=O)[O-])cccc23)cc1)c1cc(C(F)(F)F)cc(C(F)(F)F)c1` [Compound 17, N-(4-(8-Nitroquinolin-4-yloxy)phenyl)-3,5-bis(trifluoromethyl)benzamide], the IC50 was greater than 40 µM.

As for `O=C(Nc1ccc(Oc2ccnc3ccccc23)cc1)c1cc(C(F)(F)F)ccc1F` [Compound 18, 2-Fluoro-N-(4-(quinolin-4-yloxy)phenyl)-5-(trifluoromethyl)benzamide], the IC50 was determined as 21.1 µM.

Compound `O=C(Nc1ccc(Oc2ccnc3c([N+](=O)[O-])cccc23)cc1)c1cc(C(F)(F)F)ccc1F` [Compound 19, 2-Fluoro-N-(4-(8-nitroquinolin-4-yloxy)phenyl)-5-(trifluoromethyl)benzamide] returned an IC50 greater than 40 µM.

Take `Cc1cc(NC(=O)c2cc(C(F)(F)F)cc(C(F)(F)F)c2)ccc1Oc1ccnc2c([N+](=O)[O-])cccc12` [Compound 20, N-(3-Methyl-4-(8-nitroquinolin-4-yloxy)phenyl)-3,5-bis(trifluoromethyl)benzamide]: the IC50 is greater than 40 µM.

In turn, `Cc1cc(NC(=O)c2cc(C(F)(F)F)cc(C(F)(F)F)c2)ccc1Oc1ccnc2c(N)cccc12` [Compound 21, N-(4-(8-Aminoquinolin-4-yloxy)-3-methylphenyl)-3,5-bis(trifluoromethyl)benzamide] yielded an IC50 of 25.4 µM.

Compound `CC(=O)Nc1cccc2c(Oc3ccc(NC(=O)c4cc(C(F)(F)F)cc(C(F)(F)F)c4)cc3C)ccnc12` [Compound 22, N-(4-(8-Acetamidoquinolin-4-yloxy)-3-methylphenyl)-3,5-bis(trifluoromethyl)benzamide] gave an IC50 greater than 40 µM.

For the compound `O=C(Nc1cccc(Oc2ccnc3c([N+](=O)[O-])cccc23)c1)c1cc(C(F)(F)F)cc(C(F)(F)F)c1` [Compound 23, N-(3-(8-Nitroquinolin-4-yloxy)phenyl)-3,5-bis(trifluoromethyl)benzamide], the IC50 is greater than 40 µM.

`Nc1cccc2c(Oc3cccc(NC(=O)c4cc(C(F)(F)F)cc(C(F)(F)F)c4)c3)ccnc12` [Compound 24, N-(3-(8-Aminoquinolin-4-yloxy)phenyl)-3,5-bis(trifluoromethyl)benzamide] showed an IC50 of 19 µM.

`CC(=O)Nc1cccc2c(Oc3cccc(NC(=O)c4cc(C(F)(F)F)cc(C(F)(F)F)c4)c3)ccnc12` [Compound 25, N-(3-(8-Acetamidoquinolin-4-yloxy)phenyl)-3,5-bis(trifluoromethyl)benzamide] displayed an IC50 of 10.8 µM.

The test system of another series is HCC cells. Description: Apoptosis analysis by flow cytometry (sub-G1). Type of series: cell-based. The note with it: HCC cells, 24 h. As to the method:
Apoptotic cells were measured by flow cytometry (sub-G1). After treatment with various compounds, cells were trypsinized, collected by centrifugation and resuspended in PBS. After centrifugation, the cells were washed in PBS and resuspended in […] (PI) staining solution. Specimens were incubated in the dark for 30 min at 37° C. and then analyzed with an EPICS Profile II flow cytometer (Coulter Corp., Hialeah, Fla.). All experiments were performed in triplicate
Collected cells were fixed in 75% Ethanol and stained with 20 ug/ml Propidium Iodide (PI). Sub-G1 analysis was performed by flow-cytometry. […] Points, mean; bars, SD (n=6).
(In general: In flow cytometry, cells or beads pass a laser one at a time.)
Regarding `O=S(=O)(Nc1cccc(Oc2ccn3cc(-c4ccccc4)nc3c2)c1)c1cccc(C(F)(F)F)c1` [SC-37, N-(3-(2-phenylimidazo[1,2-a]pyridin-7-yloxy)phenyl)-3-(trifluoromethyl)benzenesulfonamide], the “apoptosis (sub-G1)” value is “has no activity in inducing cancer cell apoptosis”.

Consider `N#Cc1ccc(Oc2cccc(NC(=O)C3(C(=O)Nc4cccc(Oc5ccc(C#N)cc5)c4)CC3)c2)cc1` [SC-67, N,N′-bis(3-(4-cyanophenoxyl)phenyl)cyclopropane-1,1-dicarboxamide], for which the “apoptosis (sub-G1)” value is “has no activity in inducing cancer cells (PLC5) apoptosis”.

A further series deals with HCC cells. Put plainly: cells.
Details: not given
From the text:
Points, mean; bars, SD (n=6).
Points, mean; bars, SD ([…]). […] The N-SH2 domain is in orange, the C-SH2 domain is in marine, the PTP domain is in hot pink, and the linkers between them are in gray. […] ELISA, enzyme-linked immunosorbent assay.
For `N#Cc1ccc(Oc2cc(NC(=O)Nc3ccc(Cl)c(C(F)(F)F)c3)ccc2F)cc1` [SC-111, 1-(4-chloro-3-(trifluoromethyl)phenyl)-3-(3-(4-cyanophenoxy)-4-fluorophenyl)urea], the “viability of HCC cells / cytotoxicity” value is given as “exhibits antitumor effect in vitro”.

In another series the test system is p-STAT3, cyclin D1, survivin, Mc1-1. Put plainly: Western blot of STAT3-related proteins in HCC cells. It is filed as cell-based. As to conditions: PLC5 cells, 5 and 10 μM, 24 h. As to the method: Cells were treated with various compounds at 5 and 10 μM for 24 h. Cell lysates were analyzed by western blot.
HCC cells treated with SC-43 (10 μM for 24 h) were collected with RIPA lysis buffer. Antibodies for immunoblotting such as cyclin D1 was purchased from Santa Cruz Biotechnology. Other antibodies such as survivin, phospho-STAT3 (Tyr705), STAT3, Mc1-1, SOCS1, and SOCS3 were from Cell Signaling.
For orientation: A western blot detects proteins with antibodies after separation by electrophoresis.
In the case of `O=[N+]([O-])c1cc(C(F)(F)F)ccc1S(=O)(=O)Nc1ccc(Oc2ccnc3ccccc23)cc1` [Compound 12, 2-Nitro-N-(4-(quinolin-4-yloxy)phenyl)-4-(trifluoromethyl)benzenesulfonamide], the “cyclin D1 and survivin level” value was “had no effect on either protein”.

These data come from patent US9090617B1, “Agonists of Src homology-2 containing protein tyrosine phosphatase-1 and treatment methods using the same” (National Taiwan University, priority 2011, dated 2015).
